Measurements from PMC6932632 (Biochemistry, 2019).

Biological target: T1, p38γ (Homo sapiens, UniProt P53778)
T1 sequence (P53778 1-367): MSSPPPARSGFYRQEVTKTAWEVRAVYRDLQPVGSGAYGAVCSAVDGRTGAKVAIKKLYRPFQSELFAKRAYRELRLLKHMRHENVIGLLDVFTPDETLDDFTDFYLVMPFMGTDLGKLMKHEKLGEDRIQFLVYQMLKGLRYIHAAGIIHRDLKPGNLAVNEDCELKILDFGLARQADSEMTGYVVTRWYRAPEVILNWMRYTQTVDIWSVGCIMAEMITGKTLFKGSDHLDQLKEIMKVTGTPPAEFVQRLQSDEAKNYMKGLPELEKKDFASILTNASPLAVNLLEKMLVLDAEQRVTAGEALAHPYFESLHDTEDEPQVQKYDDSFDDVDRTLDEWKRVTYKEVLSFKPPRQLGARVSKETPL
Test: NMR titration
Format: binding

Nc1ncnc2c1ncn2[C@@H]1O[C@H](COP(=O)(O)OP(=O)(O)OP(=O)(O)O)[C@@H](O)[C@H]1O [ATP]
Kd: 770 µM
